According to ChEMBL document CHEMBL1157539, “Thousands of chemical starting points for antimalarial lead identification” (Nature, 2010):

Test system: Plasmodium falciparum
Experiment: GSK_TCMDC: Inhibition of Plasmodium falciparum 3D7 in whole erythrocytes, using parasite LDH activity as an index of growth.
Format: functional, organism-based

Compound	XC50 (Plasmodium falciparum, 3D7)	XC50
c1ccc(CNCCn2c(-c3ccc4c(c3)CCO4)nc3c(N4CCCC4)cccc32)cc1	1.13 µM	–
Clc1ccc(Nc2nc3nonc3nc2Nc2ccc(Cl)c(Cl)c2)cc1	0.645 µM	–
O=C(Nc1ccc(Cl)cc1C(=O)Nc1cccc(F)c1)c1ccc([N+](=O)[O-])cc1	0.365 µM	–
O=C(/C=C/c1cccc(Cl)c1)NC1CCC(CN2CCC(c3c[nH]c4ccccc34)CC2)CC1 (stereo unspecified)	0.752 µM	0.721 µM
CCOc1cc(C(=O)NC2CCN(Cc3ccccc3)CC2)ccc1-c1nc2cc(Cl)ccc2[nH]1	0.43 µM	–
Cc1ccc(-c2nc3cc(NC(=O)c4ccc([N+](=O)[O-])o4)ccc3o2)cc1Cl	0.16 µM	–
COc1ccc(CNCc2cccc(-c3cccc(-c4nc5cccc(C)c5[nH]4)c3)c2)cc1	0.134 µM	–
Cc1ccc(CNC(=O)[C@H](CCCN)Nc2nc(NCC3CCCCC3)ncc2C)cc1	0.987 µM	–
O=C(Nc1cccc(-c2nn3ccccc3c2-c2ccnc(Nc3ccc(NCCCN4CCOCC4)c(F)c3)n2)c1)c1c(F)cccc1F	0.259 µM	–
CCN(CC)CCCOC(=O)c1ccc2c(c1)-c1ccc(C(=O)OCCCN(CC)CC)c3cccc-2c13	0.933 µM	–
COc1ccc(C2C(C(=O)Nc3cc(Cl)c(OC)cc3OC)c3ccccc3C(=O)N2C)cc1 (stereo unspecified)	0.82 µM	–
Cc1cc(N)nc2ccc(-c3ccc(CN)cc3)cc12	0.621 µM	–
O=C(NC1CC1)c1cnc(N2CCC(OCc3ccccc3)CC2)c(Cl)c1	1.4 µM	–
C=CCOC(=O)N1CCC(CNCc2cccc(-c3cccc(-c4nc5cccc(C)c5[nH]4)c3)c2)C1 (stereo unspecified)	0.109 µM	–
CCCc1cc(OC)c(CC2c3cc(O)c(Cl)cc3CCN2C)cc1OC (stereo unspecified)	0.575 µM	–
O=C(/C=C/c1ccc(Cl)c(Cl)c1)NCCCCCN1CCCN(C(=O)Nc2ccc(Cl)c(C(F)(F)F)c2)CC1	0.73 µM	–
Cc1cccc(-c2nc3cc(NC(=O)c4ccc([N+](=O)[O-])o4)ccc3o2)c1	0.876 µM	–
O=C(NCCCN1CCCC1=O)c1cnc(N2CCC(Oc3ccccc3)CC2)c(Cl)c1	0.305 µM	–
Fc1cc(Cl)ccc1Nc1ccnc2cc(-c3ccc(CN4CCOCC4)o3)ccc12	0.639 µM	–
CCCCCN1CCCN(Cc2cccc(NC(=O)c3ccc(Cl)c(Cl)c3)c2)CC1	0.927 µM	–
CC(C)NCc1cccc(-c2ccc(NC(=O)c3ccc(F)cc3)cc2)c1	0.85 µM	–
CCn1c(-c2nonc2N)nc2c(-c3cccc(Cl)c3)ncc(OCCCNCc3cnc(C)nc3N)c21	1.01 µM	–
CCOc1ccc2[nH]c(C)cc(=NN=Cc3ccccc3F)c2c1	0.738 µM	–
CCN1CCN(c2cc(C)c3cc(NC(=O)C=Cc4cccc(OC)c4OC)ccc3n2)CC1	0.697 µM	–
CCC1(C)CC(CCNCc2ccccc2O)(c2ccc(F)cc2)CCO1 (stereo unspecified)	0.88 µM	–

Compound	XC50 (Plasmodium falciparum, 3D7)	XC50
CC[C@H]1CN2CC[C@@H]1C[C@H]2[C@H](O)c1cc(N2CCCC(C)(C)C2)nc2ccc(OC)cc12	0.337 µM	–
CN1CCCN(Cc2cccc(-c3ccc(NC(=O)c4cccc(C#N)c4)cc3)c2)CC1	0.723 µM	–
Cc1cc(C)c(CON2C(=N)N=C(N)NC2(C)C)cc1C	0.00363 µM	–
O=C(Nc1cccc(-c2ccc(CN3CCNCC3)cc2)c1)c1cccc(Cl)c1	1.25 µM	–
Cc1nn(-c2cccc(Cl)c2)c2c1C(C(=O)c1ccc3c(c1)OCO3)CC(=O)N2 (stereo unspecified)	0.371 µM	–
CN(C)CCC(O)C=C(c1ccc(Cl)cc1)c1ccc(Cl)cc1 (stereo unspecified)	0.948 µM	–
N#Cc1cc(C(=O)Nc2ccccc2)c(N)nc1SCC(=O)Nc1ccc(Br)cc1	1.1 µM	–
Cc1cc(Nc2ccnc(-c3ccc(Cl)cc3)n2)ccn1	1.04 µM	–
CN1CCCN(Cc2ccc(-c3ccc(NC(=O)c4ccc(C#N)cc4)cc3)cc2)CC1	1.02 µM	–
NC(=O)NC(=O)C=Cc1ccco1	0.15 µM	–
CCN(CCCN1CCCCC1)c1cc(C)nc(Nc2cccc(OC(F)(F)F)c2)n1	0.229 µM	–
Cc1cc2[nH]c(-c3ccc(C(=O)NCCCN4CCN(c5cccc(Cl)c5)CC4)cc3)nc2cc1Cl	0.769 µM	–
CS(=O)(=O)CCNCc1cccc(-c2cc3c(Nc4ccc(OCc5ccccc5)cc4)ncnc3cn2)c1	0.734 µM	–
Cc1sc2nc(CN3CCCC3)nc(-n3c(NCCO)nc4ccccc43)c2c1C	1.24 µM	–
O=C(Nc1cc(Cl)ccc1Cl)N[C@H]1CCN(CCCCCNC(=O)C2CC2c2ccc(Cl)c(Cl)c2)C1 (stereo partly specified)	0.77 µM	–
COc1cccc(CCN(Cc2ccccc2-c2ccc(CNC3CC(C)(C)NC(C)(C)C3)cc2)C(=O)NC2CCCCC2)c1	0.932 µM	–
O=C(/C=C/c1ccc(Cl)c(Cl)c1)N1CCC(CN2CCC(c3c[nH]c4cc(C(F)(F)F)ccc34)CC2)CC1	0.796 µM	–
COc1ccc(NC(=O)[C@H](C)Nc2cc(C)nc(NCC3CCCCC3)n2)cc1	1.28 µM	–
COc1ccc(-c2ccccc2CNC2Cc3ccccc3C2)cc1S(=O)(=O)NCCN1CCCC1	0.87 µM	–
O=C(NC1CCN(Cc2ccccc2)CC1)c1cccc(Nc2nc(-c3ccccc3)cs2)c1	1.03 µM	–
COc1cccc(CCNCCCCCCNCCc2ccc(Cl)cc2)c1	1.01 µM	–
CC1(C)N=C(N)N=C(N)N1OCCCOc1cccc(C(=O)O)c1	0.0399 µM	–
O=C(/C=C/c1ccc(Cl)c(Cl)c1)N1CCC(CN2CCC(c3c[nH]c4ncccc34)CC2)CC1	1.09 µM	–
Oc1ccc(CN2CCC(N3CCN(CCc4ccccc4)CC3)C(O)C2)cc1Cl (stereo unspecified)	0.865 µM	–
OCCN1CCN(Cc2cccc(-c3cccc(-c4nc5cc(F)ccc5[nH]4)c3)c2)CC1	0.706 µM	–

Compound	XC50 (Plasmodium falciparum, 3D7)	XC50
C=C(NC(=O)c1cc(C)cc(C)c1)C(=O)OC	0.174 µM	–
O=C(c1ccc2ccccc2n1)N1CCCc2cc(Br)ccc21	0.858 µM	–
CCCNc1nc(NCc2c(C)cccc2C)nc(NC(C)(C)C)n1	0.862 µM	–
COc1cc2c(cc1C(F)(F)F)N(C(=O)Nc1cc(OC(F)(F)F)cc(-c3cccnc3)c1)CC2	0.0415 µM	–
CC1(C)N=C(N)N=C(N)N1c1cccc(Cl)c1	0.0379 µM	–
O=C(NCc1cccc(F)c1)c1ccc(O)c(-c2cc(Cl)cc(Cl)c2)c1	0.559 µM	–
O=C(/C=C/c1ccc(Cl)cc1)NCCCCCN1CCCN(C(=O)Nc2ccc(Cl)c(C(F)(F)F)c2)CC1	0.91 µM	–
N#CC(NC(=O)C=Cc1ccccc1)c1ccccc1 (stereo unspecified)	0.181 µM	–
COc1ccc2nccc([C@@H](O)CN3CCC(NCc4cc5ccccc5[nH]4)CC3)c2n1	0.628 µM	–
COc1cccc(-c2cnc(N)c(-c3nc4cc(Cl)c(F)cc4[nH]3)c2)c1	0.536 µM	–
O=C(Nc1cccc(CN2CCCN(Cc3ccc(O)cc3)CC2)c1)c1ccc(Cl)c(Cl)c1	0.259 µM	–
Cc1nnc2c(N(C(=O)NCCc3ccccc3)C(=O)NCCc3ccccc3)cc3cc(Cl)ccc3n12	0.954 µM	–
CC(C)CC1c2[nH]c3ccccc3c2CCN1C(=O)CCc1ccccc1 (stereo unspecified)	0.965 µM	–
Cn1nccc1C(=O)NCCNCc1ccc(-c2cccc(-c3nc4ccccc4[nH]3)c2)cc1	0.137 µM	–
Cc1[nH]c(C)c(-c2ccc(-c3ccc(OC(F)(F)F)cc3)nc2)c(=O)c1Br	0.249 µM	–
COc1ccc2c(=NN=Cc3ccc(OC)c4ccccc34)cc(C)[nH]c2c1	0.599 µM	–
O=C(CCN1C(=O)c2ccccc2C1=O)N1CCN(CC=Cc2ccccc2)CC1	0.541 µM	–
CN1CC(c2ccccc2)c2cc(O)c(CN3CCCCC3)cc2CC1Cc1ccccc1 (stereo unspecified)	0.176 µM	–
O=C(N/C=N/c1cc([N+](=O)[O-])c(-c2cccnc2)n1-c1ccc(O)cc1)c1ccccc1	0.299 µM	–
Nc1cccc(CNCc2ccc(-c3ccc(-c4nc5cc(F)ccc5[nH]4)s3)cc2)c1	0.992 µM	–
COc1ccc2c(c1)CCCC2C(C)NCC(O)c1cccc(C(F)(F)F)c1 (stereo unspecified)	0.345 µM	–
COc1cc(NCC2(CNCc3cn(Cc4ccccc4)c4ccccc34)CCCCC2)nc2ccccc12	0.946 µM	–
N=C(N)c1cccc(-c2cc(-c3cccc(C(=N)N)c3)on2)c1	0.086 µM	–
Cc1cc(CNCCCCCCCNCc2cccc([N+](=O)[O-])c2)ccc1O	0.637 µM	–
Cc1ccc(CON2C(=N)N=C(N)NC2(C)C)cc1C	0.0032 µM	–

Compound	XC50 (Plasmodium falciparum, 3D7)	XC50
CCOC(=O)c1nc(-c2ccc(-c3ccccc3)cc2)[nH]c1N	0.422 µM	–
CC1(C)NC(N)=NC(=N)N1OCCCCOc1ccc(Cl)cc1C1CCCCC1	0.0032 µM	–
CCOc1ccc(C(C)NC(=O)Cc2ccccc2F)cc1OCC (stereo unspecified)	0.844 µM	–
OCCCCCCNc1nc(NCc2ccccc2-c2ccc(C(F)(F)F)cc2)nc(N2CCNCC2)n1	1.44 µM	–
O=C(COc1cccc([N+](=O)[O-])c1)Nc1ccc(-c2nc3ccccc3[nH]2)cc1	0.754 µM	–
Cc1nn(C2CCS(=O)(=O)C2)c(C)c1C1Nc2ccccc2C(=O)N1Cc1ccc2c(c1)OCO2 (stereo unspecified)	0.511 µM	–
COc1ccc(Nc2nccc(N3CCC(NC(=O)Nc4cccc(C(C)=O)c4)C3)n2)cc1 (stereo unspecified)	0.821 µM	–
O=C(Nc1cccc(CN2CCCN(Cc3ccc(O)cc3)CC2)c1)c1cc(F)cc(F)c1	0.658 µM	–
O=C(Nc1ccc(OC2CCN(Cc3ccc(F)cc3)CC2)c(Cl)c1)c1ccsc1	0.717 µM	–
CN(C)CCOc1ccc(-c2cc(-c3ccncc3)c(-c3ccc(Cl)c(O)c3)[nH]2)cc1	0.224 µM	–
Cc1ccc(S(=O)(=O)NC2CCN(CCNC(=O)Nc3cc(C)nc4ccccc34)C2)cc1 (stereo unspecified)	1.04 µM	–
CCC(CC(C)C(=O)O)=C(c1ccccc1)c1ccccc1 (stereo unspecified)	0.224 µM	–
O=C(NOCCCCOc1ccc(Cl)c(Cl)c1)c1ccccc1	0.183 µM	–
CNc1ccc(CNCc2ccc(-c3ccc(-c4nc5cc(C(F)(F)F)ccc5[nH]4)s3)cc2)cc1	0.177 µM	–
CC(C)(C)OC(=O)C1CCCN(Cc2ccc(-c3cccc(-c4nc5ccccc5[nH]4)c3)cc2)C1 (stereo unspecified)	0.358 µM	–
Clc1ccc(CNC2CCN(CC3CCCCC3)CC2)cc1	1.11 µM	–
CCCCN(Cc1cnccc1-c1ccc(Br)cc1)c1ccc(C(O)(C(F)(F)F)C(F)(F)F)cc1	1.06 µM	–
COc1cc2nc(N3CC(C)N(C(=O)Cc4ccc(-c5ccccc5)cc4)C(C)C3)nc(N)c2cc1OC (stereo unspecified)	0.796 µM	–
CC1CN(c2cnn(C/C=C/c3ccc(NC(=O)c4ccc(Cl)cc4)cc3)c(=O)c2Cl)CC(C)N1 (stereo unspecified)	0.853 µM	–
O=C(NCCN1CCCC1)c1ccc(-c2ccc(-c3nc4ccccc4[nH]3)s2)cc1	0.938 µM	–
CCOC(=O)CCc1cc(F)c(F)c(OC[C@H](O)CNC(C)(C)C(O)c2ccc3ccccc3c2)c1 (stereo partly specified)	0.859 µM	–
Cn1cc(C(=O)Nc2cccc(-c3cccc(-c4nc5ccccc5[nH]4)c3)c2)n(C)c1=O	0.715 µM	–
COc1ccc(C2SCC(=O)N2CCc2ccc(OC)c(OC)c2)cc1 (stereo unspecified)	0.306 µM	–
Clc1cccnc1N1CCN(c2ncccc2Cl)CC1	0.147 µM	–
Cc1cc(OCCCN2CCCCC2)ccc1NC(=O)COc1ccc(Cl)cc1C(=O)c1cc(C#N)cc(C(F)(F)F)c1	1.03 µM	–
